Laboratory results reported in patent publication US6368831B1, “Treatment of hyperproliferative disorders” (Childrens Hospital Los Angeles, priority 1998, dated 2002).

Columns and labels:
MCF7/GCS cells = assay: DIMSCAN cytotoxicity assay, MCF7/GCS tet OFF vs tet ON; format: cell-based, human; settings: 96 hours, P<0.005 at >6 μM HPR, safingol 0-4 μM
Source text: We have shown that HPR generates ceramide in neuroblastoma tumor cell lines in a dose- and time-depenent manner (B. Maurer et al., J. Natl. Cancer Inst. (1999)(in press)). Glucosylceramide (GC) is a nontoxic metabolite of ceramide. Ceramide is converted into glucosylceramide by the action of glucosylceramide synthase (GCS). Glucosylceramide synthase (GCS) has been transfected into human MCF7 breast cancer cells in a tetracycline-inducible expression construct in the MCF7/GCS cell line (Y. Liu et al., J. Biol. Chem. 274:1140-46 (1999)). […] We have exposed MCF7/GCS cells to HPR, safingol and HPR+safingol in the absence, and in the presence, of doxycycline.
Methods. MCF7/GCS cells were plated and incubated in RPMI medium with 10% fetal bovine serum and 200 microgram/ml Hygromycin B (tet OFF) for DIMSCAN cytotoxicity assays as previously described. To increase GCS expression, MCF7/GCS cells were also incubated in the above medium with 3 microgram/ml doxycycline (tet ON) for three days prior to replating them for DIMSCAN cytotoxicity assay. DIMSCAN assays with doxycycline-induced (tet ON) cells also included 3 microgram/ml doxycycline in the medium. Both “tet OFF” and “tet ON” MCF7/GCS cells were exposed to HPR, safingol and HPR+safingol (3:1 molar ratio) for 96 hours and assayed for survival fraction by DIMSCAN as previously described.

[1] = system: CHLA-90 neuroblastoma cells; assay: DIMSCAN cytotoxicity assay, CHLA-90; format: cell-based; settings: HPR 3-10 μM, BOC-d-fmk 40 μM, +24 hours, P=0.002 at 3 μM, P<0.001 at >3 μM
Experimental: Cytotoxicity is determined using the DIMSCAN assay system (R. Proffitt et al., Cytometry 24, 204-213 (1996); T. Frgala et al., Proc. AACR, 36, 303 (1995). The system employs digital imaging microscopy to quantify viable cells, which selectively accumulate fluorescein diacetate to become brightly fluorescent. The system is capable of measuring cytotoxicity over a 4-5 log dynamic range by quenching the residual fluorescence of dead and dying cells with eosin Y and quantifying the total fluorescence of viable cells using digital thresholding. Measured fluorescence is directly proportionate to the number of viable cells. A comparison of the total fluorescence of a drug-treated cell population to the fluorescence of a similar number of untreated cells yields a survival fraction. In brief, 5000 to 10,000 SK-N-RA neuroblastoma cells/well are replicate plated into 60 wells of a 96-well tissue culture plate in 0.1 cc media and allowed to attach overnight. Drug(s) are then added in 0.05 cc media to the final concentrations indicated. There are 12 wells treated per drug concentration. Twelve wells receive drug-vector only to the appropriate final concentration and serve as controls for the plate. Cells are incubated for 96-120 hours at 37° C. in 5% CO2. Fluorescein diacetate is then added to each well in 0.05 cc media to a final concentration of 8 microgram/cc. Cells are incubated for a further 15 minutes at 37° C. and 0.03 cc of 0.5% eosin Y is added to each well. Total fluorescence of viable cells is then measured by digital imaging microscopy.
Methods. Cells were added in 100 μL whole medium per well to 96-well microplates for DIMSCAN cytotoxicity assay as previously described. Cell lines used were the neuroblastoma cell lines CHLA-90 and LAN-6. At Time=0, either all-trans-retinoic acid (ATRA), 13-cis-retinoic acid (13-cis-RA) or a combination of retinoid plus safingol at a 3:1 molar ratio were added in 50 μL whole medium. Plates were incubated and assayed for cytotoxicity by DIMSCAN assay at +120 for CHLA-90 cells and+144 hours for LAN-6 cells.
Methods. To determine the manner in which 4-HPR or HPR+safingol induced cell death in neuroblastoma cells, morphological evidence of apoptosis and/or necrosis was assessed in CHLA-90 cells in the presence or absence of a specific as inhibitor of apoptosis, the neural cell-penetrant, pan-caspase enzyme inhibitor, BOC-d-fink (Enzyme Systems Products, Livermore, Calif.). […] CHLA-90 cells were plated in duplicate in whole medium in Lab Tek chamber slides (Nunc, Naperville, Ill.), allowed to attach for 24 hours, and then treated in the presence or absence of BOC-d-fink (40 μM) for one hour prior to treatment with HPR (10 μM). Control cells were treated with vehicle solvents of 0. 1% ethanol (4-HPR) and/or 0.2% DMSO (BOC-d-fink). Morphological features of apoptosis (DNA condensation and/or apoptotic bodies) were visualized in undetached cells at +24 or +48 hours using blue nuclear fluorescence induced by the supravital DNA stain Hoechst 33342 (10 μg/ml for 30 mins at 37° C.), while necrotic cells and advanced apoptotic cells were recognized by red fluorescent staining with propidium iodide (0.5 μM/ml). Red fluorescently-staining cells with condensed nuclear remnants were scored as apoptotic cells. For cells assayed at +48 hours, additional BOC-d-fink (40 μM) or appropriate control vehicle was added at +24 hours. Cells were observed using filters appropriate for each dye sequentially on an Olympus Vanox epifluorescence microscope. Mutiple random fields of cells (of ˜100-500 cells each) were counted and photographed for viable cells, apoptotic cells, and necrotic cells. To further examine cells treated with HPR, cytotoxicity assays were performed on CHLA-90 cells pretreated with or without 40 μM BOC-d-fmk for one hour prior to the addition of 4-HPR (3-10 μM) and assayed at +24 hours by DIMSCAN assay to assess the effect of caspase inhibition on viability. […]

[2] = system: CHLA-90 neuroblastoma cell line; assay: Ceramide assay, CHLA-90; format: cell-based, human; settings: CHLA-90 (drug resistant); 10 μM fenretinide; 20% O2
Experimental: The ceramide assay is carried out as follows. 500,000 neuroblastoma cells/well are replicate plated in six-well tissue culture plates and allowed to attach overnight. Tritiated (3H)-palmitic acid (a lipid precursor) is added to 1 microcure/cc and fenretinide added to a final concentration of 10 uM. Control cells receive tritiated label but no drug. At the indicated time, cells are harvested from triplicate wells, washed, and lipids extracted with methanol, acetic acid, water, and chloroform. The organic layer (containing the tritium label incorporated into lipids) is isolated and dried down by a nitrogen stream. The lipid sample is dissolved in chloroform: methanol and 10% of each sample assayed to estimate the total tritium in the lipid sample. The lipids in sample fractions, together with unlabeled ceramide standards, are then separated by thin layer chromatography and the plates developed by iodine vapor. The region of the plate corresponding to the ceramide standard is scraped and the tritium of the co-migrating sample ceramide is measured. Total sample ceramide is then expressed as percent tritium label in ceramide versus tritium in total lipid. […]

CC1=C(/C=C/C(C)=C/C=C/C(C)=C/C(=O)Nc2ccc(O)cc2)C(C)(C)CCC1 [HPR, all-trans-N-(4-hydroxyphenyl)retinamide] was tested, and the “change of cytotoxicity in tet ON (doxycycline, GCS induced) compared to tet OFF cells” value (MCF7/GCS cells) was “significantly decreased”, the “cytotoxicity in the presence of BOC-d-fmk” value [1] was “significant cytotoxicity” and the ceramide generation [2] was “generate ceramide”.
